Experimental data taken from PubChem BioAssay (NCI).
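Where inhibition never reached the appropriate level, the endpoint shown equals the highest concentration tested. Otherwise, values were interpolated linearly from a five-concentration, 48-hour dose response in 96-well plates. Here, GI50 denotes the concentration required for 50% inhibition of growth. The concentration for full growth arrest is given as TGI.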

Legend:
Assay in all cases: NCI-60 cell line screen, 48 h
MCF7 breast = tested on: MCF7 breast
CAKI-1 renal = tested on: CAKI-1 renal
UACC-62 melanoma = tested on: UACC-62 melanoma
UO-31 renal = tested on: UO-31 renal
MALME-3M melanoma = tested on: MALME-3M melanoma
OVCAR-4 ovarian = tested on: OVCAR-4 ovarian
SK-MEL-2 melanoma = tested on: SK-MEL-2 melanoma
OVCAR-8 ovarian = tested on: OVCAR-8 ovarian
HCT-15 colon = tested on: HCT-15 colon
HOP-92 NSCLC = tested on: HOP-92 NSCLC

## COc1ccc2c(c1)N(CCO)C1=C(C(=O)OC1)C2c1cccc(Br)c1 (configuration not stated)
MCF7 breast
  GI50: 0.0391 µM
  TGI: > 100 µM
CAKI-1 renal
  GI50: 0.0395 µM
  TGI: 35.6 µM
UACC-62 melanoma
  GI50: 0.048 µM
  TGI: 44.5 µM
UO-31 renal
  GI50: 0.0776 µM
  TGI: > 85.3 µM
MALME-3M melanoma
  GI50: 0.0536 µM
  TGI: 85.7 µM
OVCAR-4 ovarian
  GI50: 0.123 µM
  TGI: > 100 µM
SK-MEL-2 melanoma
  GI50: 0.0595 µM
  TGI: 3.24 µM
OVCAR-8 ovarian
  GI50: 0.14 µM
  TGI: 13.9 µM
HCT-15 colon
  GI50: 0.0659 µM
  TGI: > 100 µM

## CCOCC[P+](c1ccccc1)(c1ccccc1)c1ccccc1
MCF7 breast
  GI50: 13.7 µM
  TGI: 66.4 µM
CAKI-1 renal
  GI50: 44.1 µM
  TGI: > 100 µM
UO-31 renal
  GI50: 34.8 µM
  TGI: > 100 µM
MALME-3M melanoma
  GI50: 10.3 µM
  TGI: 61.4 µM
OVCAR-4 ovarian
  GI50: 11.9 µM
  TGI: > 100 µM
SK-MEL-2 melanoma
  GI50: 18.6 µM
  TGI: 47.9 µM
OVCAR-8 ovarian
  GI50: 22.2 µM
  TGI: > 100 µM
HCT-15 colon
  GI50: 73.8 µM
  TGI: > 100 µM

## O=C1CC23CC(=O)CC2(C1)c1ccccc1C3=O (configuration not stated)
CAKI-1 renal
  TGI: > 100 µM
UACC-62 melanoma
  TGI: > 100 µM
UO-31 renal
  TGI: > 100 µM
MALME-3M melanoma
  TGI: > 100 µM
SK-MEL-2 melanoma
  TGI: > 100 µM
OVCAR-8 ovarian
  TGI: > 100 µM

## COc1ccc(C2SC(C)C(=O)N2NC(=O)C(O)c2ccccc2)cc1 (configuration not stated)
MCF7 breast
  GI50: > 100 µM
  TGI: > 100 µM
CAKI-1 renal
  GI50: > 100 µM
  TGI: > 100 µM
HOP-92 NSCLC
  GI50: > 100 µM
  TGI: > 100 µM
UACC-62 melanoma
  GI50: > 100 µM
  TGI: > 100 µM
UO-31 renal
  GI50: > 100 µM
  TGI: > 100 µM
OVCAR-4 ovarian
  GI50: > 100 µM
  TGI: > 100 µM
SK-MEL-2 melanoma
  GI50: > 100 µM
  TGI: > 100 µM
OVCAR-8 ovarian
  GI50: > 100 µM
  TGI: > 100 µM
HCT-15 colon
  GI50: > 100 µM
  TGI: > 100 µM

## CN(C)CCOc1cccc(NC2=C(Cl)C(=O)C(Nc3cccc(OCCN(C)C)c3)=C(Cl)C2=O)c1
CAKI-1 renal
  GI50: 1.44 µM
  TGI: 2.81 µM
HOP-92 NSCLC
  GI50: 0.184 µM
  TGI: 0.408 µM
UACC-62 melanoma
  GI50: 1.2 µM
  TGI: 2.57 µM
UO-31 renal
  GI50: 0.498 µM
  TGI: 0.979 µM
MALME-3M melanoma
  GI50: 0.275 µM
  TGI: 0.827 µM
OVCAR-4 ovarian
  GI50: 0.17 µM
  TGI: 0.329 µM
SK-MEL-2 melanoma
  GI50: 1.11 µM
  TGI: 2.61 µM
OVCAR-8 ovarian
  GI50: 1.13 µM
  TGI: 2.91 µM
HCT-15 colon
  GI50: 0.35 µM
  TGI: 1.4 µM

## O=C(Nc1cc(Cl)cc(Cl)c1)c1ccc(NC2=C(Cl)C(=O)N(Cc3ccccc3)C2=O)cc1
MCF7 breast
  GI50: 1.29 µM
  TGI: 4.86 µM
CAKI-1 renal
  GI50: 0.799 µM
  TGI: 2.98 µM
UACC-62 melanoma
  GI50: 4.13 µM
  TGI: 16.7 µM
UO-31 renal
  GI50: 2.29 µM
  TGI: 6.01 µM
MALME-3M melanoma
  GI50: 14.6 µM
  TGI: 30.4 µM
OVCAR-4 ovarian
  GI50: 18.6 µM
  TGI: > 100 µM
SK-MEL-2 melanoma
  GI50: 12.7 µM
  TGI: 33.9 µM
OVCAR-8 ovarian
  GI50: 2.62 µM
  TGI: 6.32 µM
HCT-15 colon
  GI50: 4.68 µM
  TGI: 19.7 µM

## O=CN/C=C/c1ccccc1O
CAKI-1 renal
  TGI: > 100 µM
HOP-92 NSCLC
  TGI: > 100 µM
UACC-62 melanoma
  TGI: > 100 µM
UO-31 renal
  TGI: > 100 µM
MALME-3M melanoma
  TGI: > 100 µM
OVCAR-4 ovarian
  TGI: > 100 µM
SK-MEL-2 melanoma
  TGI: > 100 µM
OVCAR-8 ovarian
  TGI: > 100 µM
HCT-15 colon
  TGI: > 100 µM

## O=C(Nc1ccc(Cl)cc1Cl)/C(Cl)=C1/Sc2ccccc2NC1=O
CAKI-1 renal
  TGI: > 100 µM
HOP-92 NSCLC
  TGI: 51.6 µM
UACC-62 melanoma
  TGI: > 100 µM
UO-31 renal
  TGI: 77.2 µM
MALME-3M melanoma
  TGI: 77.9 µM
OVCAR-4 ovarian
  TGI: > 100 µM
SK-MEL-2 melanoma
  TGI: 48.3 µM
OVCAR-8 ovarian
  TGI: > 100 µM
HCT-15 colon
  TGI: > 100 µM

## O=[N+]([O-])c1ccc(C2N3CCCCC3[C@@H]3c4[nH]c5ccccc5c4CCN23)cc1 (some centres not stated)
CAKI-1 renal
  TGI: > 100 µM
HOP-92 NSCLC
  TGI: > 100 µM
UACC-62 melanoma
  TGI: 18.6 µM
UO-31 renal
  TGI: 81.8 µM
OVCAR-4 ovarian
  TGI: > 100 µM
SK-MEL-2 melanoma
  TGI: 33 µM
OVCAR-8 ovarian
  TGI: > 100 µM
HCT-15 colon
  TGI: 59.1 µM

## O=S(=O)(c1ccccc1)C1CN(Cc2ccccc2)CCN(Cc2ccccc2)C1
MCF7 breast
  TGI: > 100 µM
CAKI-1 renal
  TGI: 98.9 µM
UACC-62 melanoma
  TGI: > 68.1 µM
UO-31 renal
  TGI: 77.3 µM
MALME-3M melanoma
  TGI: > 86.3 µM
OVCAR-4 ovarian
  TGI: > 72.6 µM
SK-MEL-2 melanoma
  TGI: > 100 µM
OVCAR-8 ovarian
  TGI: > 60.3 µM
HCT-15 colon
  TGI: > 100 µM

## O=C(Cc1nc2ccccc2s1)NC12CC3CC(CC(C3)C1)C2
CAKI-1 renal
  TGI: > 100 µM
HOP-92 NSCLC
  TGI: > 100 µM
UACC-62 melanoma
  TGI: > 100 µM
UO-31 renal
  TGI: > 100 µM
MALME-3M melanoma
  TGI: > 100 µM
OVCAR-4 ovarian
  TGI: > 100 µM
SK-MEL-2 melanoma
  TGI: > 100 µM
OVCAR-8 ovarian
  TGI: > 100 µM
HCT-15 colon
  TGI: > 100 µM

## O=c1[nH]c(C2CCCCC2)nc2cc(Cl)ccc12
CAKI-1 renal
  TGI: > 100 µM
HOP-92 NSCLC
  TGI: 94.3 µM
UACC-62 melanoma
  TGI: > 100 µM
UO-31 renal
  TGI: > 100 µM
MALME-3M melanoma
  TGI: > 100 µM
OVCAR-4 ovarian
  TGI: > 100 µM
SK-MEL-2 melanoma
  TGI: > 100 µM
OVCAR-8 ovarian
  TGI: > 100 µM
HCT-15 colon
  TGI: > 100 µM

## COc1cc2c(/C=C3/C(=O)Nc4c3ccc3ccccc43)c(Cl)[nH]c2cc1C
MCF7 breast
  GI50: 0.0342 µM
  TGI: > 50 µM
CAKI-1 renal
  GI50: 0.00894 µM
HOP-92 NSCLC
  TGI: > 31.1 µM
UACC-62 melanoma
  GI50: 0.0119 µM
  TGI: > 19.8 µM
UO-31 renal
  GI50: 0.0216 µM
  TGI: > 34.1 µM
SK-MEL-2 melanoma
  GI50: 0.872 µM
  TGI: > 30.1 µM
OVCAR-8 ovarian
  GI50: 0.0176 µM
  TGI: 1.82 µM
HCT-15 colon
  GI50: 0.0427 µM
  TGI: 0.143 µM

## COc1ccc(OC)c2c3c(ncc12)-c1cc2c(cc1C3)OCO2
CAKI-1 renal
  GI50: > 100 µM
  TGI: > 100 µM
HOP-92 NSCLC
  GI50: > 100 µM
  TGI: > 100 µM
UACC-62 melanoma
  GI50: > 100 µM
  TGI: > 100 µM
UO-31 renal
  GI50: > 100 µM
  TGI: > 100 µM
OVCAR-4 ovarian
  GI50: > 100 µM
  TGI: > 100 µM
SK-MEL-2 melanoma
  GI50: > 100 µM
  TGI: > 100 µM
OVCAR-8 ovarian
  GI50: 9.48 µM
  TGI: > 100 µM
HCT-15 colon
  GI50: 3.87 µM
  TGI: > 100 µM

## C=C1CCC2C(C)(CO)C(O)CCC2(C)C1CC(O)C1=CCOC1=O (configuration not stated)
CAKI-1 renal
  TGI: > 100 µM
HOP-92 NSCLC
  TGI: > 100 µM
UACC-62 melanoma
  TGI: > 100 µM
UO-31 renal
  TGI: > 100 µM
MALME-3M melanoma
  TGI: > 100 µM
OVCAR-4 ovarian
  TGI: > 100 µM
SK-MEL-2 melanoma
  TGI: > 100 µM
OVCAR-8 ovarian
  TGI: > 100 µM
HCT-15 colon
  TGI: > 100 µM

## Cc1ccc(S(=O)(=O)NC(=O)Nc2nc(Cl)cc(Cl)n2)cc1
CAKI-1 renal
  TGI: > 100 µM
HOP-92 NSCLC
  TGI: > 100 µM
UACC-62 melanoma
  TGI: > 100 µM
UO-31 renal
  TGI: > 100 µM
MALME-3M melanoma
  TGI: > 100 µM
OVCAR-4 ovarian
  TGI: > 100 µM
SK-MEL-2 melanoma
  TGI: > 100 µM
OVCAR-8 ovarian
  TGI: > 100 µM

## C/C(CC(=O)Nc1ccc([N+](=O)[O-])cc1)=N/N=C(N)N
HOP-92 NSCLC
  TGI: > 100 µM
UACC-62 melanoma
  TGI: > 100 µM
UO-31 renal
  TGI: > 100 µM
MALME-3M melanoma
  TGI: > 100 µM
SK-MEL-2 melanoma
  TGI: > 100 µM
OVCAR-8 ovarian
  TGI: > 100 µM

## CC(C)(C)C1CCN(C(=O)c2ccccc2)CC1
UACC-62 melanoma
  TGI: > 100 µM
UO-31 renal
  TGI: > 100 µM
MALME-3M melanoma
  TGI: > 100 µM
SK-MEL-2 melanoma
  TGI: > 100 µM
OVCAR-8 ovarian
  TGI: > 100 µM
HCT-15 colon
  TGI: > 100 µM

## Cc1ccccc1C(C#N)/C(=N/NC(=O)C(=O)NN)C(=O)Nc1cccc(C(F)(F)F)c1 (configuration not stated)
CAKI-1 renal
  TGI: > 100 µM
HOP-92 NSCLC
  TGI: > 100 µM
UACC-62 melanoma
  TGI: > 100 µM
UO-31 renal
  TGI: > 100 µM
MALME-3M melanoma
  TGI: > 100 µM
OVCAR-4 ovarian
  TGI: > 100 µM
SK-MEL-2 melanoma
  TGI: > 100 µM
OVCAR-8 ovarian
  TGI: > 100 µM
HCT-15 colon
  TGI: > 100 µM

## COC(=O)CCC(=O)C(C#N)c1ccc(Cl)cc1Cl (configuration not stated)
CAKI-1 renal
  TGI: > 100 µM
HOP-92 NSCLC
  TGI: > 100 µM
UACC-62 melanoma
  TGI: > 100 µM
UO-31 renal
  TGI: > 100 µM
MALME-3M melanoma
  TGI: > 100 µM
SK-MEL-2 melanoma
  TGI: > 100 µM
HCT-15 colon
  TGI: > 100 µM
